Patent US20120121591A1 (priority 2009, published 2012)
Where two headings read alike, the source gives them in different places.

Key:
Format in all cases: cell-based
[1] = test system: IL-2 secretion from T cells in human whole blood; conditions: read-out: WB (IL-2) IC50 (nM, Avg)
hKv1.3 = hKv1.3 (Homo sapiens, UniProt P22001); experiment: cell-based; conditions: Kv1.3 (IWQ) IC50 (nM, Avg)
[2] = test system: IFN-g secretion from T cells in human whole blood
[3] = read-out: WB (IFNg) IC5- (nM, Avg)
[4] = read-out: WB (IFNg) IC50 (nM, Avg)

hKv1.3, sequence (P22001 whole entry): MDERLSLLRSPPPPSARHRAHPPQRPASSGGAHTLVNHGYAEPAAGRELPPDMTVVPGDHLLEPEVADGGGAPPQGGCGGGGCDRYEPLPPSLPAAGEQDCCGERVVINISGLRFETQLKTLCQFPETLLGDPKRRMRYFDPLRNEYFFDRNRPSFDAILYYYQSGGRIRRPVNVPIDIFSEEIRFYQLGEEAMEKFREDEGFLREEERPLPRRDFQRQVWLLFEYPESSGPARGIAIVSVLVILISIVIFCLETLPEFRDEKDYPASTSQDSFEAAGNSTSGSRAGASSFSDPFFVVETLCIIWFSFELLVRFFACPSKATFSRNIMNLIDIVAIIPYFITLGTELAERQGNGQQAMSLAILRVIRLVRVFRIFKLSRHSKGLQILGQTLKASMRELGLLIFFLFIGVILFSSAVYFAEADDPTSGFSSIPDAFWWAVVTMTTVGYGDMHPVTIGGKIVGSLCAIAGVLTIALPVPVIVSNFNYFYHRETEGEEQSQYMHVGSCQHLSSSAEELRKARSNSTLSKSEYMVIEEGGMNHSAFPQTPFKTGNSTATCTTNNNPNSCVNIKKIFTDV

Row | SMILES | IC50 [1] [nM] | IC50 (hKv1.3) [nM] | IC50 [2, 3] [nM] | IC50 [2, 4] [nM]
1 | CC[C@H](C)[C@@H]1NC(=O)[C@@H](NC(=O)[C@H](CO)NC(=O)[C@@H](N)CCCNC(=N)N)CSSC[C@@H](C(=O)O)NC(=O)[C@H]([C@@H](C)O)NC(=O)CNC(=O)[C@@H]2CSSC[C@@H]3NC(=O)[C@H](CCC(N)=O)NC(=O)[C@H](Cc4ccccc4)NC(=O)[C@H](C)NC(=O)[C@H]([C@@H](C)O)NC(=O)[C@H](CSSC[C@H](NC(=O)[C@H](Cc4ccccc4)NC(=O)[C@H](CCC(=O)O)NC(=O)[C@H](CC(C)C)NC(=O)[C@H](CCCNC(=N)N)NC(=O)[C@H](Cc4ccc(O)cc4)NC(=O)[C@H](CCCCN)NC(=O)[C@H](CCSC)NC(=O)[C@H](CO)NC(=O)[C@H](Cc4c[nH]cn4)NC(=O)[C@H](CCCCN)NC3=O)C(=O)N[C@@H](CCCNC(=N)N)C(=O)N[C@@H](CCCCN)C(=O)N[C@@H]([C@@H](C)O)C(=O)N2)NC(=O)[C@H](CCCNC(=N)N)NC(=O)[C@H](CO)NC(=O)[C@H](CCCCN)NC(=O)[C@@H]2CCCN2C(=O)[C@H]([C@@H](C)CC)NC(=O)[C@H]([C@@H](C)O)NC(=O)[C@H](CC(=O)O)NC1=O [[Glu26]ShK] | 0.202 | 0.317 | 0.4 | 
2 | CC[C@H](C)[C@@H]1NC(=O)[C@@H](NC(=O)[C@H](CO)NC(=O)[C@@H](N)CCCNC(=N)N)CSSC[C@@H](C(=O)O)NC(=O)[C@H]([C@@H](C)O)NC(=O)CNC(=O)[C@@H]2CSSC[C@@H]3NC(=O)[C@H](CCC(N)=O)NC(=O)[C@H](Cc4ccccc4)NC(=O)[C@H](C)NC(=O)[C@H]([C@@H](C)O)NC(=O)[C@H](CSSC[C@H](NC(=O)[C@H](Cc4ccccc4)NC(=O)[C@H](CO)NC(=O)[C@H](CC(C)C)NC(=O)[C@H](CCCNC(=N)N)NC(=O)[C@H](Cc4ccc(O)cc4)NC(=O)[C@H](CCCCN)NC(=O)[C@H](CCSC)NC(=O)[C@H](CO)NC(=O)[C@H](Cc4c[nH]cn4)NC(=O)[C@H](CCCCN)NC3=O)C(=O)N[C@@H](CCC(=O)O)C(=O)N[C@@H](CCCCN)C(=O)N[C@@H]([C@@H](C)O)C(=O)N2)NC(=O)[C@H](CCCNC(=N)N)NC(=O)[C@H](CO)NC(=O)[C@H](CCCCN)NC(=O)[C@@H]2CCCN2C(=O)[C@H]([C@@H](C)CC)NC(=O)[C@H]([C@@H](C)O)NC(=O)[C@H](CC(=O)O)NC1=O [[Glu29]ShK] | 0.73 | 0.142 | 1.96 | 
3 | CC[C@H](C)[C@@H]1NC(=O)[C@@H](NC(=O)[C@H](CO)NC(=O)[C@@H](N)CCCNC(=N)N)CSSC[C@@H](C(=O)O)NC(=O)[C@H]([C@@H](C)O)NC(=O)CNC(=O)[C@@H]2CSSC[C@@H]3NC(=O)[C@H](CCC(N)=O)NC(=O)[C@H](Cc4ccccc4)NC(=O)[C@H](C)NC(=O)[C@H]([C@@H](C)O)NC(=O)[C@H](CSSC[C@H](NC(=O)[C@H](Cc4ccccc4)NC(=O)[C@H](CO)NC(=O)[C@H](CC(C)C)NC(=O)[C@H](CCCNC(=N)N)NC(=O)[C@H](Cc4ccc(O)cc4)NC(=O)[C@H](CCCCN)NC(=O)[C@H](CCSC)NC(=O)[C@H](CO)NC(=O)[C@H](Cc4c[nH]cn4)NC(=O)[C@H](CCCCN)NC3=O)C(=O)N[C@@H](CCCNC(=N)N)C(=O)N[C@@H](CCC(=O)O)C(=O)N[C@@H]([C@@H](C)O)C(=O)N2)NC(=O)[C@H](CCCNC(=N)N)NC(=O)[C@H](CO)NC(=O)[C@H](CCCCN)NC(=O)[C@@H]2CCCN2C(=O)[C@H]([C@@H](C)CC)NC(=O)[C@H]([C@@H](C)O)NC(=O)[C@H](CC(=O)O)NC1=O [[Glu30]ShK] | 0.019 | 0.272 | 0.043 | 
4 | CC[C@H](C)[C@@H]1NC(=O)[C@@H](NC(=O)[C@H](CO)NC(=O)[C@@H](N)CCCNC(=N)N)CSSC[C@@H](C(=O)O)NC(=O)[C@H]([C@@H](C)O)NC(=O)CNC(=O)[C@@H]2CSSC[C@@H]3NC(=O)[C@H](CCC(N)=O)NC(=O)[C@H](Cc4ccccc4)NC(=O)[C@H](C)NC(=O)[C@H]([C@@H](C)O)NC(=O)[C@H](CSSC[C@H](NC(=O)[C@H](Cc4ccccc4)NC(=O)[C@H](CO)NC(=O)[C@H](CC(C)C)NC(=O)[C@H](CCCNC(=N)N)NC(=O)[C@H](Cc4ccc(O)cc4)NC(=O)[C@H](CCCCN)NC(=O)[C@H](CCSC)NC(=O)[C@H](CO)NC(=O)[C@H](Cc4c[nH]cn4)NC(=O)[C@H](CCCCN)NC3=O)C(=O)N[C@@H](CCCNC(=N)N)C(=O)N[C@@H](CCCCN)C(=O)N[C@@H](CCC(=O)O)C(=O)N2)NC(=O)[C@H](CCCNC(=N)N)NC(=O)[C@H](CO)NC(=O)[C@H](CCCCN)NC(=O)[C@@H]2CCCN2C(=O)[C@H]([C@@H](C)CC)NC(=O)[C@H]([C@@H](C)O)NC(=O)[C@H](CC(=O)O)NC1=O [[Glu31]ShK] | 0.242 | 0.22 | 0.309 | 
5 | CCCC[C@@H]1NC(=O)[C@H](CO)NC(=O)[C@H](Cc2c[nH]cn2)NC(=O)[C@H](CCCCN)NC(=O)[C@@H]2CSSC[C@@H]3NC(=O)[C@H]([C@@H](C)O)NC(=O)[C@H](CCCCN)NC(=O)[C@H](CCCNC(=N)N)NC(=O)[C@H](CSSC[C@H](NC(=O)[C@H](CCCNC(=N)N)NC(=O)[C@H](CO)NC(=O)[C@H](CCCCN)NC(=O)[C@@H]4CCCN4C(=O)[C@H]([C@@H](C)CC)NC(=O)[C@H]([C@@H](C)O)NC(=O)[C@H](CC(=O)O)NC(=O)[C@H]([C@@H](C)CC)NC(=O)[C@@H](NC(=O)[C@H](CO)NC(=O)[C@@H](N)CCCNC(=N)N)CSSC[C@@H](C(N)=O)NC(=O)[C@H]([C@@H](C)O)NC(=O)CNC3=O)C(=O)N[C@@H]([C@@H](C)O)C(=O)N[C@@H](C)C(=O)N[C@@H](Cc3ccccc3)C(=O)N[C@@H](Cc3c[nH]cn3)C(=O)N2)NC(=O)[C@H](Cc2ccccc2)NC(=O)[C@H](CO)NC(=O)[C@H](CC(C)C)NC(=O)[C@H](CCCNC(=N)N)NC(=O)[C@H](Cc2ccc(O)cc2)NC(=O)[C@H](CCCCN)NC1=O [[His, Nle21]ShK-amide] | 0.24 | 0.139 |  | 0.148
6 | CC[C@H](C)[C@@H]1NC(=O)[C@@H](NC(=O)[C@H](CO)NC(=O)[C@@H](N)CCCCN)CSSC[C@@H](C(=O)O)NC(=O)[C@H]([C@@H](C)O)NC(=O)CNC(=O)[C@@H]2CSSC[C@@H]3NC(=O)[C@H](CCC(N)=O)NC(=O)[C@H](Cc4ccccc4)NC(=O)[C@H](C)NC(=O)[C@H]([C@@H](C)O)NC(=O)[C@H](CSSC[C@H](NC(=O)[C@H](Cc4ccccc4)NC(=O)[C@H](CO)NC(=O)[C@H](CC(C)C)NC(=O)[C@H](CCCNC(=N)N)NC(=O)[C@H](Cc4ccc(O)cc4)NC(=O)[C@H](CCCCN)NC(=O)[C@H](CCSC)NC(=O)[C@H](CO)NC(=O)[C@H](Cc4c[nH]cn4)NC(=O)[C@H](CCCCN)NC3=O)C(=O)N[C@@H](CCCNC(=N)N)C(=O)N[C@@H](CCCCN)C(=O)N[C@@H]([C@@H](C)O)C(=O)N2)NC(=O)[C@H](CCCNC(=N)N)NC(=O)[C@H](CO)NC(=O)[C@H](CCCCN)NC(=O)[C@@H]2CCCN2C(=O)[C@H]([C@@H](C)CC)NC(=O)[C@H]([C@@H](C)O)NC(=O)[C@H](CC(=O)O)NC1=O [[Lys1]ShK] | 0.035 | 0.158 |  | 0.073
